Data as given in patent US9777034B2, “Modular synthesis of amphiphilic Janus glycodendrimers and their self-assembly into glycodendrimersomes” (The Trustees of The University of Pennsylvania, priority 2013, dated 2017).
Entries after “also recorded” stand apart in the source; their conditions may differ.

Assays:
[1] = Cryo-TEM of assemblies formed in water; type: physicochemical
[2] = Self-assembly by injection of THF or ethanol solution into water or buffer, analysed by DLS (size, polydispersity, stability in time); conditions: for stability of glycodendrimersomes in buffer: PBS and HEPES buffers
Experimental: The resulting assemblies were first analyzed by dynamic light scattering (DLS) for size, polydispersity (PDI), and stability in time. Assemblies stable in time were subsequently analyzed by cryogenic-transmission electron microscopy (cryo-TEM) to determine their structure.
Dynamic light scattering (DLS) was performed with a Malvern Instruments particle sizer (Zetasizer® Nano S, Malvern Instruments, UK) equipped with 4 mW He—Ne laser 633 nm and avalanche photodiode positioned at 175° to the beam and temperature controlled cuvette holder. Instrument parameters were determined automatically along with measurement times. Experiments were performed in triplicate. The Janus-dendrimer (1 mg) dissolved in 100 μL of THF was injected into 2 mL of ultrapure water or buffer followed by 5 seconds of vortex mixing. DLS experiments were measured at 25° C. Different final concentration of dendrimersomes in water was prepared from varying the starting concentration of THF solution with the same injection volume (100 μL) into constant 2.0 mL of ultrapure water or buffer.

[3] = Micropipette aspiration of giant glycodendrimersomes; conditions: for behaviour in micropipette aspiration: giant vesicles prepared by hydration; for elastic modulus of membrane: average of 11 (52dd) or 13 (51bc) vesicles; for critical area strain: giant vesicles
galectin-3 (Gal-3) = target: T1, galectin-3 (Gal-3) (Homo sapiens, UniProt P17931); assay: Agglutination of glycodendrimersomes with Gal-3; type: binding; conditions: [52bd]=1.0 mg/mL, [Gal-3]=0-4.0 mg/mL, 10 mM HEPES
T1 construct: made in house

galectin-4 (Gal-4) = target: T2, galectin-4 (Gal-4) (Homo sapiens, UniProt P56470); assay: Agglutination of glycodendrimersomes with Gal-4; type: binding; conditions: [52bd]=1.0 mg/mL, [Gal-4]=0-4.0 mg/mL, 10 mM HEPES
T2 construct: made in house
T2 sequence (P56470 1-323): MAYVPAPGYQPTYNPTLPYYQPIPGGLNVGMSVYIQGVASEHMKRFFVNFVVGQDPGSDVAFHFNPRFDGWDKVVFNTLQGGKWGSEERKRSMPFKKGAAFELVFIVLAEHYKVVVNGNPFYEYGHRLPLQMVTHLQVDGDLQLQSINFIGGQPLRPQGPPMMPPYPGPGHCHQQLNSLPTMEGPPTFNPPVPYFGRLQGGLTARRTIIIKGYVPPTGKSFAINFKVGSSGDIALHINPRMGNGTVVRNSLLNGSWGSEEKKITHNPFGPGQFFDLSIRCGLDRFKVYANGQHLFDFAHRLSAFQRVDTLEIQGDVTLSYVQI

[4] = tested on: Viscum album L. agglutinin (VAA)
PA-IL = target: T3, PA-IL (Pseudomonas aeruginosa, UniProt Q05097); assay: Agglutination of glycodendrimersomes with PA-IL; type: binding; conditions: 10 mM HEPES, 1.0 mM MnCl2 and CaCl2
T3 construct: purchased Sigma-Aldrich
T3 sequence (Q05097 whole entry): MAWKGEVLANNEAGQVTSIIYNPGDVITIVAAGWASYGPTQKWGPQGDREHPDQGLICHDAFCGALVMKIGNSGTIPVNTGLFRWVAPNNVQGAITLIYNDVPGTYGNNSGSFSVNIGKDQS

T1 sequence (P17931 whole entry): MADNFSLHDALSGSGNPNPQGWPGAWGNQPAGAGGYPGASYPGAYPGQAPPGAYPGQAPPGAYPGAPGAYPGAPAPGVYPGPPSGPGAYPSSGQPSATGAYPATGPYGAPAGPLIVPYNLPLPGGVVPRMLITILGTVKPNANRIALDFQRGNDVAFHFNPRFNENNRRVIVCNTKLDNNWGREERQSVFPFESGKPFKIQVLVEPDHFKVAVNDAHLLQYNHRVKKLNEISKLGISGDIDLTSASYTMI

With “(3,4,5)2Et8G1-PE-TRZi-Man2 [Compound 49ca]” the “structure of assemblies formed in water” value ([1]; injection into water, cryo-TEM) was “mixtures of soft glycodendrimersomes and dendrimer aggregates; also recorded: formation of dendrimer aggregates is dominant with only few glycodendrimersomes being observed”.
With “(3,5)12G1-PE-TRZi-3EOLac2 [Compound 53ba]” the “structure of assemblies formed in water” value ([1]; injection into water, cryo-TEM) was “soft glycodendrimersomes” and the “stability of glycodendrimersomes in buffer” value (“stability … in buffer” below) [2] was “stable in buffer”.
In the case of “(3,4)2Et8G1-PE-TRZi-Man2 [Compound 49aa]”, the “structure of assemblies formed in water” value ([1]; injection into water, cryo-TEM) is reported as “only soft glycodendrimersomes”.
For “(3,4)2Ethyl8G1-PE-TRZ-(galactose)2 [Compound 48aa]”, the “structure of assemblies formed in water” value ([1]; injection into water, cryo-TEM) was “dendrimer aggregates”.
With “(3,5)12G1-PE-spacer-TRZ-(galactose)2 [Compound 50ba]” the “structure of assemblies formed in water” value ([1]; injection into water, cryo-TEM) was “dendrimer aggregates”.
For “(3,4,5)12G1-PE-spacer-TRZ-(galactose)2 [Compound 50ca]”, the “structure of assemblies formed in water” value ([1]; injection into water, cryo-TEM) was “mixture of tubular and spherical glycodendrimersomes; also recorded: mixtures of tubular and soft spherical glycodendrimersomes and also bundles of tubular dendrimersomes”.
For “(3,5)2Et8G1-PE-TRZi-3EOLac2 [Compound 53ea]”, the “structure of assemblies formed in water” value ([1]; injection into water, cryo-TEM) was “soft glycodendrimersomes” and the “stability … in buffer” value [2] was “stable in buffer”.
For “(3,4)2Et8G1-PE-TRZi-3EOLac2 [Compound 53da]”, the “structure of assemblies formed in water” value ([1]; injection into water, cryo-TEM) was “glycodendrimersomes and solid lamellae; also recorded: soft glycodendrimersomes”.
For “(3,5)2Et8G1-PE-TRZi-3EOGal2 [Compound 49bb]”, the “structure of assemblies formed in water” value ([1]; injection into water, cryo-TEM) was “only soft glycodendrimersomes”, the precipitation ([2]; 10 mg/mL final concentration in water) was “does not exhibit any sign of precipitation” and the “stability … in buffer” value [2] was “stable in buffer”. The average vesicle size ([2]; concentration above 10 mg/mL) was “of the order of a micrometer” and the “stability of vesicles in water and buffer” value ([2]; concentrations higher than 10 mg/mL) was “stable in water and buffer”.
With “(3,4)12G1-PE-TRZi-3EOGal2 [Compound 51aa]” the “structure of assemblies formed in water” value ([1]; injection into water, cryo-TEM) was “solid lamellae”.
In the case of “(3,5)12G1-PE-TRZi-3EOMan2 [Compound 51bb]”, the “structure of assemblies formed in water” value ([1]; injection into water, cryo-TEM) is reported as “soft vesicles”, the “agglutination with Con A, dependence on glycodendrimersome diameter” value (concanavalin A (Con A)) is reported as “smallest glycodendrimersome provides the fastest agglutination” and the “behaviour in micropipette aspiration” value [3] is reported as “fluid unilamellar membrane”. The “stability … in buffer” value [2] was “stable in buffer”.
With “(3,4)12G1-PE-spacer-TRZ-(mannose)2 [Compound 50ab]” the “structure of assemblies formed in water” value ([1]; injection into water, cryo-TEM) was “solid lamellae and solid vesicles”.
For “(3,4)12G1-PE-TRZ-4EOLac2 [Compound 52ad]”, the “structure of assemblies formed in water” value ([1]; injection into water, cryo-TEM) was “mixture of soft vesicles and bundles of rod-like micelles”.
In the case of “(3,5)2Et8G1-PE-TRZi-Gal2 [Compound 49bc]”, the “structure of assemblies formed in water” value ([1]; injection into water, cryo-TEM) is reported as “mixtures of dendrimer aggregates and cubosomes”.
In the case of “(3,4,5)12G1-PE-spacer-TRZ-(1EO-lactose)2 [Compound 52dc]”, the “structure of assemblies formed in water” value ([1]; injection into water, cryo-TEM) is reported as “glycodendrimersomes”.
In the case of (3,4)12G1-PE-TRZi-Man2 [Compound 47ab], the “structure of assemblies formed in water” value ([1]; injection into water, cryo-TEM) is reported as “solid glycodendrimersomes”.
With “(3,5)2Et8G1-PE-TRZi-Man2 [Compound 49ba]” the “structure of assemblies formed in water” value ([1]; injection into water, cryo-TEM) was “mixtures of soft glycodendrimersomes and dendrimer aggregates; also recorded: coexistence of thick-wall glycodendrimersomes and large dendrimer aggregates”.
For “(3,4,5)12G1-PE-TRZi-3EOMan2 [Compound 51cb]”, the “morphological change on annealing” value ([1]; 0.5 mg/mL in water, annealing at 60° C. for 30 min) was “transition from solid lamellae to solid vesicles” and the “structure of assemblies formed in water” value ([1]; injection into water, cryo-TEM) was “solid lamellae”.
With “(3,4,5)12G1-PE-TRZi-3EOGal2 [Compound 51ca]” the “structure of assemblies formed in water” value ([1]; injection into water, cryo-TEM) was “solid lamellae”.
In the case of “(3,4)2Ethyl8G1-PE-TRZ-(mannose)2 [Compound 48ab]”, the “structure of assemblies formed in water” value ([1]; injection into water, cryo-TEM) is reported as “dendrimer aggregates”.
In the case of “(3,4,5)2Et8G1-PE-TRZi-3EOLac2 [Compound 53fa]”, the “structure of assemblies formed in water” value ([1]; injection into water, cryo-TEM) is reported as “soft glycodendrimersomes” and the “stability … in buffer” value [2] is reported as “stable in buffer”.
With “(3,4,5)12G1-PE-spacer-TRZ-(4EO-lactose)2 [Compound 52dd]” the “structure of assemblies formed in water” value ([1]; injection into water, cryo-TEM) was “glycodendrimersomes”, the “elastic modulus of membrane” value [3] was 49.6±15 dyne/cm and the critical area strain [3] was “greater than 20%”. For the same substance, the “behaviour in micropipette aspiration” value [3] was “fluid unilamellar membrane; also recorded: display hysteresis” and the “stability … in buffer” value [2] was “stable in buffer”.
With “((3,4)12G-PE-TRZ-(galactose)2 [Compound 46aa]” the “structure of assemblies formed in water” value ([1]; injection into water, cryo-TEM) was “sheet-like solid lamellae”.
For “(3,4,5)2Et8G1-PE-TRZi-Gal2 [Compound 49cc]”, the “structure of assemblies formed in water” value ([1]; injection into water, cryo-TEM) was “dendrimer aggregates”.
In the case of “(3,4,5)12G1-PE-TRZi-2EOMan2 [Compound 51cc]”, the “structure of assemblies formed in water” value ([1]; injection into water, cryo-TEM) is reported as “solid lamellae”.
With “(3,4,5)12G1-PE-TRZ-(mannose)2 [Compound 46cb]” the “structure of assemblies formed in water” value ([1]; concentrations higher than 0.5 mg/mL) was “polygonal glycodendrimersome”, the “structure of assemblies formed in water” value ([1]; concentrations smaller than 0.5 mg/mL) was “nano-tubular morphology is dominant” and the “structure of assemblies formed in water” value ([1]; injection into water, cryo-TEM) was “mixture of morphologies”.
In the case of “(3,4,5)2Et8G1-PE-TRZi-3EOGal2 [Compound 49cb]”, the “structure of assemblies formed in water” value ([1]; injection into water, cryo-TEM) is reported as “only soft glycodendrimersomes” and the “stability … in buffer” value [2] is reported as “stable in buffer”.
In the case of “(3,5)12G1-PE-TRZ-4EOLac2 [Compound 52bd]”, the “structure of assemblies formed in water” value ([1]; injection into water, cryo-TEM) is reported as “glycodendrimersomes”, the “agglutination with Gal-3” value (galectin-3 (Gal-3)) is reported as “agglutination” and the “agglutination with Gal-4” value (galectin-4 (Gal-4)) is reported as “agglutination”. The “agglutination with VAA” value [4] was “agglutination effect can be clearly visualized” and the “stability … in buffer” value [2] was “stable in buffer”.
For “(3,4,5)12G1-PE-TRZ-(galactose)2 [Compound 46ca]”, the “structure of assemblies formed in water” value ([1]; injection into water, cryo-TEM) was “solid lamellae”.
In the case of “(3,5)12G1-PE-TRZi-1EOMan2 [Compound 51bd]”, the symmetry of glycodendrimercubosome ([1]; 1.0 mg/mL, Fourier transform of cryo-TEM) is reported as “Pn3m cubic symmetry” and the “structure of assemblies formed in water” value ([1]; injection into water, cryo-TEM) is reported as “cubosomes”.
In the case of “(3,5)12G1-PE-TRZi-2EOMan2 [Compound 51bc]”, the “structure of assemblies formed in water” value ([1]; injection into water, cryo-TEM) is reported as “soft vesicles”, the “elastic modulus of membrane” value [3] is reported as 163±30 dyne/cm and the critical area strain [3] is reported as 5-10%. For the same substance, the “behaviour in micropipette aspiration” value [3] was “fluid unilamellar membrane”.
With “(3,4,5)12G1-PE-TRZi-3EOLac2 [Compound 53ca]” the “structure of assemblies formed in water” value ([1]; injection into water, cryo-TEM) was “solid and polygonal glycodendrimersomes; also recorded: solid vesicles and solid lamellae”.
With “(3,4)12G1-PE-TRZ-(mannose)2 [Compound 46ab]” the “structure of assemblies formed in water” value ([1]; injection into water, cryo-TEM) was “sheet-like solid lamellae”.
In the case of “(3,4)12G1-PE-TRZ-1EOMan2 [Compound 51ad]”, the “structure of assemblies formed in water” value ([1]; injection into water, cryo-TEM) is reported as “solid vesicles” and the “behaviour in micropipette aspiration” value [3] is reported as “cannot be aspirated”.
In the case of “(3,4)12G1-PE-TRZi-2EOMan2 [Compound 51ac]”, the “structure of assemblies formed in water” value ([1]; injection into water, cryo-TEM) is reported as “solid vesicles”.
For “(3,4)12G1-PE-TRZi-3EOLac2 [Compound 53aa]”, the “structure of assemblies formed in water” value ([1]; injection into water, cryo-TEM) was “combination of soft glycodendrimersomes and rod-like micelles”.
With “(3,4)2Et8G1-PE-TRZi-3EOGal2 [Compound 49ab]” the “structure of assemblies formed in water” value ([1]; injection into water, cryo-TEM) was “only soft glycodendrimersomes” and the “stability … in buffer” value [2] was “stable in buffer”.
For “(3,5)12G1-PE-spacer-TRZ-(mannose)2 [Compound 50bb]”, the “structure of assemblies formed in water” value ([1]; injection into water, cryo-TEM) was “dendrimer aggregates”.
With “(3,4)12G1-PE-TRZi-3EOMan2 [Compound 51ab]” the “structure of assemblies formed in water” value ([1]; injection into water, cryo-TEM) was “solid vesicles”.
With “(3,4)12G1-PE-spacer-TRZ-(galactose)2 [Compound 50aa]” the “structure of assemblies formed in water” value ([1]; injection into water, cryo-TEM) was “solid lamellae and solid vesicles” and the “behaviour in micropipette aspiration” value [3] was “cannot be aspirated”.
In the case of “(3,4)2Et8G1-PE-TRZ1-Gal2 [Compound 49ac]”, the “structure of assemblies formed in water” value ([1]; injection into water, cryo-TEM) is reported as “only soft glycodendrimersomes”.
For “(3,5)12G1-PE-TRZi-3EOGal2 [Compound 51ba]”, the “structure of assemblies formed in water” value ([1]; injection into water, cryo-TEM) was “soft vesicles”, the “agglutination with PA-IL” value (PA-IL) was “agglutination; also recorded: agglutinated” and the “agglutination with VAA” value [4] was “agglutinated”. The “stability … in buffer” value [2] was “stable in buffer”.
In the case of “(3,4,5)12G1-PE-spacer-TRZ-(mannose)2 [Compound 50cb]”, the “structure of assemblies formed in water” value ([1]; injection into water, cryo-TEM) is reported as “tubular glycodendrimersome bundles; also recorded: mixtures of tubular and soft spherical glycodendrimersomes and also bundles of tubular dendrimersomes”.
For “(3,4,5)12G1-PE-TRZi-1EOMan2 [Compound 51cd]”, the “structure of assemblies formed in water” value ([1]; injection into water, cryo-TEM) was “solid lamellae”.
